Experimental data from PubChem BioAssay AID330 (DTP/NCI, 2004).
Several values for one entry are separate records, joined by “and”; a condition that tells them apart may be missing. Identical values can stand only once. Toxic doses and inconclusive results are not listed. The calls were made as follows: active = survival T/C of 150% or more; inactive = T/C below 125% in these data.

System: P388 leukemia ip, CD2F1 mice, survival T/C
Experiment: NCI In Vivo Anticancer Drug Screen. Data for tumor model P388 Leukemia (intraperitoneal) in CD2F1 (CDF1) mice
Conditions: endpoint: median survival time, higher = longer survival
Outline: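 Mice carrying the transplanted tumor received test compound or vehicle. Survival was recorded in each group, and the value is the treated-group measurement divided by that of the vehicle-treated control group.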

[1] = dose: 60.0 mg/kg/injection, schedule: Q01DX005 (ip), vehicle: saline with Tween-80
[2] = dose: 120.0 mg/kg/injection, schedule: Q01DX005 (ip), vehicle: saline with Tween-80
[3] = dose: 240.0 mg/kg/injection, schedule: Q01DX005 (ip), vehicle: saline with Tween-80
[4] = dose: 50.0 mg/kg/injection, schedule: Q01DX005 (ip), vehicle: Klucel (hydroxypropylcellulose) (HPC)
[5] = dose: 100.0 mg/kg/injection, schedule: Q01DX005 (ip), vehicle: Klucel (hydroxypropylcellulose) (HPC)
[6] = dose: 50.0 mg/kg/injection, schedule: Q01DX005 (ip), vehicle: saline with Tween-80
[7] = dose: 25.0 mg/kg/injection, schedule: Q01DX005 (ip), vehicle: saline with Tween-80
[8] = dose: 6.25 mg/kg/injection, schedule: Q01DX005 (ip), vehicle: saline with Tween-80
[9] = dose: 12.5 mg/kg/injection, schedule: Q01DX005 (ip), vehicle: saline with Tween-80
[10] = dose: 50.0 mg/kg/injection, schedule: Q04DX003 (ip), vehicle: saline
[11] = dose: 100.0 mg/kg/injection, schedule: Q04DX003 (ip), vehicle: saline

Measured: T/C

CC(C)CC(NC(=O)C(N)Cc1c[nH]c2ccccc12)C(=O)O (stereo not drawn)
inactive: dose: 50.0 mg/kg/injection, schedule: Q01DX009 (ip), vehicle: saline 96 % of control | dose: 100.0 mg/kg/injection, schedule: Q01DX009 (ip), vehicle: saline 95 % of control | dose: 200.0 mg/kg/injection, schedule: Q01DX009 (ip), vehicle: saline 118 % of control

N#CC(C#N)=CNc1ccccc1C(=O)NCCCn1ccnc1
inactive: [1] 93 % of control | [2] 93 % of control | [3] 95 % of control

O=[N+]([O-])C(Br)(CO)CCC(Br)(CO)[N+](=O)[O-] (stereo not drawn)
inactive: dose: 6.25 mg/kg/injection, schedule: Q01DX001 (ip), vehicle: Klucel (hydroxypropylcellulose) (HPC) 111 % of control | dose: 12.5 mg/kg/injection, schedule: Q01DX001 (ip), vehicle: Klucel (hydroxypropylcellulose) (HPC) 104 % of control | dose: 25.0 mg/kg/injection, schedule: Q01DX001 (ip), vehicle: Klucel (hydroxypropylcellulose) (HPC) 107 % of control

COC(=O)C1=C(C(=O)OC)P2(c3ccccc3)(c3ccccc3)N(C)C(=S)N2C1(c1ccccc1)c1ccccc1
inactive: [4] 103 % of control | [5] 105 % of control | dose: 200.0 mg/kg/injection, schedule: Q01DX005 (ip), vehicle: Klucel (hydroxypropylcellulose) (HPC) 90 % of control

N=Nc1c(OC(=O)Nc2ccccc2)[nH]c2c(Cl)cc(Cl)cc12
inactive: [6] 100 % of control | dose: 100.0 mg/kg/injection, schedule: Q01DX005 (ip), vehicle: saline with Tween-80 100 % of control | dose: 200.0 mg/kg/injection, schedule: Q01DX005 (ip), vehicle: saline with Tween-80 98 % of control

CCOC(=O)C1(c2ccccc2)c2c(cnc3ccccc23)C(=O)N1C (stereo not drawn)
inactive: [1] 101 % of control | [2] 97 % of control | [3] 97 % of control

NC(Cc1ccc[se]1)C(=O)O (stereo not drawn)
inactive: dose: 6.25 mg/kg/injection, schedule: Q01DX005 (ip), vehicle: saline 105 % of control | dose: 12.5 mg/kg/injection, schedule: Q01DX005 (ip), vehicle: saline 99 % of control | [7] 103 % of control | dose: 25.0 mg/kg/injection, schedule: Q01DX005 (ip), vehicle: saline 97 % of control | [6] 94 % of control

CC(=O)NN=Nc1ccc(C)cc1
inactive: [4] 105 % of control | [5] 102 % of control

Clc1ccc(-n2nnc3cc(Cl)ccc32)c(Cl)c1
inactive: [8] 86 % of control and 96 % of control | [9] 94 % of control | [7] 90 % of control and 91 % of control | dose: 25.0 mg/kg/injection, schedule: Q01DX009 (ip), vehicle: saline with Tween-80 103 % of control | dose: 50.0 mg/kg/injection, schedule: Q01DX009 (ip), vehicle: saline with Tween-80 97 % of control | dose: 100.0 mg/kg/injection, schedule: Q01DX009 (ip), vehicle: saline with Tween-80 101 % of control

COc1ccc(Cl)cc1NC(=O)Nc1nccs1
inactive: dose: 25.0 mg/kg/injection, schedule: Q01DX009 (ip), vehicle: Klucel (hydroxypropylcellulose) (HPC) 90 % of control | dose: 50.0 mg/kg/injection, schedule: Q01DX009 (ip), vehicle: Klucel (hydroxypropylcellulose) (HPC) 90 % of control | dose: 100.0 mg/kg/injection, schedule: Q01DX009 (ip), vehicle: Klucel (hydroxypropylcellulose) (HPC) 90 % of control | dose: 200.0 mg/kg/injection, schedule: Q01DX009 (ip), vehicle: Klucel (hydroxypropylcellulose) (HPC) 88 % of control

C[CH2][Ge]([CH2]C)[CH2]C.C[CH2][Ge]([CH2]C)[CH2]C.C[CH2][Ge]([CH2]C)[S][Ge]([CH2]C)[CH2]C
inactive: [1] 96 % of control | [2] 100 % of control | [3] 99 % of control

Cc1ccc(C(=O)NN2C(N)=NC(N)=NC2(C)C)cc1
inactive: [10] 100 % of control | [11] 105 % of control

O=C1OCc2nc3ccccc3cc21
inactive: dose: 50.0 mg/kg/injection, schedule: Q04DX003 (ip), vehicle: Klucel (hydroxypropylcellulose) (HPC) 100 % of control | dose: 100.0 mg/kg/injection, schedule: Q04DX003 (ip), vehicle: Klucel (hydroxypropylcellulose) (HPC) 98 % of control | dose: 200.0 mg/kg/injection, schedule: Q04DX003 (ip), vehicle: Klucel (hydroxypropylcellulose) (HPC) 106 % of control

O=C([O-])CC(=O)[O-].[Cu+2].c1ccc(-c2ccccn2)nc1
inactive: [8] 101 % of control | [9] 99 % of control | [7] 108 % of control

COc1cc(Br)cc(/C=C(\C)[N+](=O)[O-])c1O
inactive: dose: 12.5 mg/kg/injection, schedule: Q04DX003 (ip), vehicle: saline 101 % of control | dose: 25.0 mg/kg/injection, schedule: Q04DX003 (ip), vehicle: saline 99 % of control and 108 % of control | [10] 104 % of control and 110 % of control | [11] 104 % of control

O=C1C2=C(Nc3cc(Cl)ccc3N2)OC1c1ccc2c(c1)OCO2 (stereo not drawn)
inactive: dose: 60.0 mg/kg/injection, schedule: Q01DX005 (ip), vehicle: Klucel (hydroxypropylcellulose) (HPC) 101 % of control | dose: 120.0 mg/kg/injection, schedule: Q01DX005 (ip), vehicle: Klucel (hydroxypropylcellulose) (HPC) 98 % of control | dose: 240.0 mg/kg/injection, schedule: Q01DX005 (ip), vehicle: Klucel (hydroxypropylcellulose) (HPC) 101 % of control
